ChEMBL document CHEMBL4145494, “Synthesis and biological evaluation of aurora kinases inhibitors based on N-trisubstituted pyrimidine scaffold” (Eur J Med Chem, 2018)
Calls of active or inactive are those of the source. The calls are words filed in the database; no cut-off is given here.

test system: not listed separately; test: Stability of the compound up to 6 months at 40 +/- 2 degC and 75 +/- 5% relative humidity by HPLC analysis; assay type: physicochemical; conditions: not given

Structure (SMILES)	Stability
Cc1cc(Nc2cc(N3CCN(C)CC3)nc(Nc3ccc(F)c(Cl)c3)n2)n[nH]1	Stable

test system: U-937; test: Antitumor activity against human U937 cells xenografted in nude mouse assessed as tumor size at 100 mg/kg, ip administered once daily for 9 days (reference value: 1069.16 +/- 327.22 mm3); assay type: functional; conditions: not given

Structure (SMILES)	Activity [mm3]
Cc1cc(Nc2cc(N3CCN(C)CC3)nc(Nc3ccc(F)c(Cl)c3)n2)n[nH]1	528.88

test system: U-937; test: Antitumor activity against human U937 cells xenografted in nude mouse assessed as tumor weight at 50 mg/kg, ip administered once daily for 9 days (reference value: 1.64 +/- 0.22 g); assay type: functional; conditions: not given

Structure (SMILES)	Activity [g]
Cc1cc(Nc2cc(N3CCN(C)CC3)nc(Nc3ccc(F)c(Cl)c3)n2)n[nH]1	0.93

test system: U-937; test: Induction of apoptosis in human U937 cells assessed as necrotic cells at 0.6 uM after 48 hrs by Annexin-V/propidium iodide staining based flow cytometry (reference value: 1.13%); assay type: functional; conditions: not given

Structure (SMILES)	Activity [%]
Cc1cc(Nc2cc(N3CCN(C)CC3)nc(Nc3ccc(F)c(Cl)c3)n2)n[nH]1	3.12

test system: U-937; test: Induction of apoptosis in human U937 cells assessed as necrotic cells at 1.2 uM after 48 hrs by Annexin-V/propidium iodide staining based flow cytometry (reference value: 1.13%); assay type: functional; conditions: not given

Structure (SMILES)	Activity [%]
Cc1cc(Nc2cc(N3CCN(C)CC3)nc(Nc3ccc(F)c(Cl)c3)n2)n[nH]1	4.34

test system: K562; test: Antiproliferative activity against human K562 cells after 48 hrs by CCK8 assay; assay type: functional, cell-based; conditions: K562, 48 h

Structure (SMILES)	IC50 [nM]
Cc1cc(Nc2cc(N3CCN(C)CC3)nc(Nc3ccc(F)c(Cl)c3)n2)n[nH]1	95.2

test system: U-937; test: Cell cycle arrest in human U937 cells assessed as accumulation at G2/M phase at 0.1 to 1 uM after 24 hrs by propidium iodide staining based flow cytometry relative to control; assay type: functional; conditions: not given

Structure (SMILES)	Activity [%]
Cc1cc(Nc2cc(N3CCN(C)CC3)nc(Nc3ccc(F)c(Cl)c3)n2)n[nH]1	>90

test system: U-937; test: Antitumor activity against human U937 cells xenografted in nude mouse assessed as tumor size at 50 mg/kg, ip administered once daily for 9 days (reference value: 1069.16 +/- 327.22 mm3); assay type: functional; conditions: not given

Structure (SMILES)	Activity [mm3]
Cc1cc(Nc2cc(N3CCN(C)CC3)nc(Nc3ccc(F)c(Cl)c3)n2)n[nH]1	753.6

test system: NB-4; test: Cell cycle arrest in human NB4 cells assessed as accumulation at G2/M phase at 0.1 to 1 uM after 24 hrs by propidium iodide staining based flow cytometry relative to control; assay type: functional; conditions: not given

Structure (SMILES)	Activity [%]
Cc1cc(Nc2cc(N3CCN(C)CC3)nc(Nc3ccc(F)c(Cl)c3)n2)n[nH]1	>90

test system: U-937; test: Antiproliferative activity against human U937 cells after 48 hrs by CCK8 assay; assay type: functional, cell-based; conditions: U-937, 48 h

Structure (SMILES)	IC50 [nM]
Cc1cc(Nc2cc(N3CCN(C)CC3)nc(Nc3ccc(F)c(Cl)c3)n2)n[nH]1	12.2

test system: HL-60; test: Antiproliferative activity against human HL60 cells after 48 hrs by CCK8 assay; assay type: functional, cell-based; conditions: HL-60, 48 h

Structure (SMILES)	IC50 [nM]
Cc1cc(Nc2cc(N3CCN(C)CC3)nc(Nc3ccc(F)c(Cl)c3)n2)n[nH]1	34

test system: U-937; test: Induction of apoptosis in human U937 cells assessed as late apoptotic cells at 0.6 uM after 48 hrs by Annexin-V/propidium iodide staining based flow cytometry (reference value: 1.93%); assay type: functional; conditions: not given

Structure (SMILES)	Activity [%]
Cc1cc(Nc2cc(N3CCN(C)CC3)nc(Nc3ccc(F)c(Cl)c3)n2)n[nH]1	6.95

test system: MDA-MB-231; test: Induction of chromosome alignment defects in human MDA-MB-231 cells at 1 uM after 48 hrs by DAPI staining based immunofluorescence assay; assay type: functional, cell-based; conditions: not given

Structure (SMILES)	Activity
Cc1cc(Nc2cc(N3CCN(C)CC3)nc(Nc3ccc(F)c(Cl)c3)n2)n[nH]1	Active

test system: U-937; test: Induction of apoptosis in human U937 cells assessed as early apoptotic cells at 0.3 uM after 48 hrs by Annexin-V/propidium iodide staining based flow cytometry (reference value: 2.38%); assay type: functional; conditions: not given

Structure (SMILES)	Activity [%]
Cc1cc(Nc2cc(N3CCN(C)CC3)nc(Nc3ccc(F)c(Cl)c3)n2)n[nH]1	1.76

test system: Mus musculus; test: Toxicity in nude mouse xenografted with human U937 cells assessed as body weight change at 50 to 100 mg/kg, ip administered once daily for 9 days; assay type: organism-based; conditions: in vivo, 216 h

Structure (SMILES)	Activity
Cc1cc(Nc2cc(N3CCN(C)CC3)nc(Nc3ccc(F)c(Cl)c3)n2)n[nH]1	Non-Toxic

test system: U-937; test: Induction of apoptosis in human U937 cells assessed as late apoptotic cells at 1.2 uM after 48 hrs by Annexin-V/propidium iodide staining based flow cytometry (reference value: 1.93%); assay type: functional; conditions: not given

Structure (SMILES)	Activity [%]
Cc1cc(Nc2cc(N3CCN(C)CC3)nc(Nc3ccc(F)c(Cl)c3)n2)n[nH]1	7.15

biological target: Aurora kinase B (Homo sapiens, UniProt Q96GD4); test: Inhibition of AURKB (unknown origin) using FAM-labeled peptide substrate preincubated for 10 mins followed by substrate addition measured after 60 mins by caliper assay; conditions: not given
Sequence (Q96GD4 whole entry): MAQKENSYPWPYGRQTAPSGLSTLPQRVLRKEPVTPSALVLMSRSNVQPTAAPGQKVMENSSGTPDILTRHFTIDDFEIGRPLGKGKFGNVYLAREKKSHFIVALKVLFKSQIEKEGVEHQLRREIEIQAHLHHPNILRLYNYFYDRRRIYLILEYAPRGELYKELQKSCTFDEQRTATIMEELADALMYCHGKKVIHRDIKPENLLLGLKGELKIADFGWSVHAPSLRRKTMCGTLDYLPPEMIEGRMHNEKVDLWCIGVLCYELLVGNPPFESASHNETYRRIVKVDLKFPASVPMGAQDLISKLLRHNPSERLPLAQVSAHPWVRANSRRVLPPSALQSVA

Structure (SMILES)	IC50 [nM]
Cc1cc(Nc2cc(N3CCN(C)CC3)nc(Nc3ccc(F)c(Cl)c3)n2)n[nH]1	25.7

test system: U-937; test: Induction of apoptosis in human U937 cells assessed as early apoptotic cells at 0.6 uM after 48 hrs by Annexin-V/propidium iodide staining based flow cytometry (reference value: 2.38%); assay type: functional; conditions: not given

Structure (SMILES)	Activity [%]
Cc1cc(Nc2cc(N3CCN(C)CC3)nc(Nc3ccc(F)c(Cl)c3)n2)n[nH]1	2.11

test system: K562; test: Cell cycle arrest in human K562 cells assessed as accumulation at G2/M phase at 0.1 to 1 uM after 24 hrs by propidium iodide staining based flow cytometry relative to control; assay type: functional; conditions: not given

Structure (SMILES)	Activity [%]
Cc1cc(Nc2cc(N3CCN(C)CC3)nc(Nc3ccc(F)c(Cl)c3)n2)n[nH]1	>90

test system: U-937; test: Induction of apoptosis in human U937 cells assessed as live cells at 0.3 uM after 48 hrs by Annexin-V/propidium iodide staining based flow cytometry (reference value: 94.6%); assay type: functional; conditions: not given

Structure (SMILES)	Activity [%]
Cc1cc(Nc2cc(N3CCN(C)CC3)nc(Nc3ccc(F)c(Cl)c3)n2)n[nH]1	88.5

test system: HeLa; test: Antiproliferative activity against human HeLa cells after 48 hrs by CCK8 assay; assay type: functional, cell-based; conditions: not given

Structure (SMILES)	IC50 [nM]
Cc1cc(Nc2cc(N3CCN(C)CC3)nc(Nc3ccc(F)c(Cl)c3)n2)n[nH]1	277

test system: MDA-MB-231; test: Inhibition of alpha-tubulin in human MDA-MB-231 cells assessed as abolishment of regular location of protein at 0.5 uM after 48 hrs by DAPI staining based immunofluorescence assay; assay type: cell-based; conditions: not given

Structure (SMILES)	inhibition
Cc1cc(Nc2cc(N3CCN(C)CC3)nc(Nc3ccc(F)c(Cl)c3)n2)n[nH]1	Active

test system: HCT-116; test: Antiproliferative activity against human HCT116 cells after 48 hrs by CCK8 assay; assay type: functional, cell-based; conditions: HCT-116, 48 h

Structure (SMILES)	IC50 [nM]
Cc1cc(Nc2cc(N3CCN(C)CC3)nc(Nc3ccc(F)c(Cl)c3)n2)n[nH]1	180

test system: U-937; test: Induction of apoptosis in human U937 cells assessed as live cells at 1.2 uM after 48 hrs by Annexin-V/propidium iodide staining based flow cytometry (reference value: 94.6%); assay type: functional; conditions: not given

Structure (SMILES)	Activity [%]
Cc1cc(Nc2cc(N3CCN(C)CC3)nc(Nc3ccc(F)c(Cl)c3)n2)n[nH]1	86.3

test system: U-937; test: Cell cycle arrest in human U937 cells assessed as decrease in 2N DNA content at 0.1 to 1 uM after 24 hrs by propidium iodide staining based flow cytometry; assay type: functional; conditions: not given

Structure (SMILES)	Activity
Cc1cc(Nc2cc(N3CCN(C)CC3)nc(Nc3ccc(F)c(Cl)c3)n2)n[nH]1	Active

biological target: T1, Aurora kinase A (Homo sapiens, UniProt O14965); test: Inhibition of AURKA (unknown origin) using FAM-labeled peptide substrate preincubated for 10 mins followed by substrate addition measured after 60 mins by caliper assay; conditions: not given
T1 sequence (O14965 whole entry): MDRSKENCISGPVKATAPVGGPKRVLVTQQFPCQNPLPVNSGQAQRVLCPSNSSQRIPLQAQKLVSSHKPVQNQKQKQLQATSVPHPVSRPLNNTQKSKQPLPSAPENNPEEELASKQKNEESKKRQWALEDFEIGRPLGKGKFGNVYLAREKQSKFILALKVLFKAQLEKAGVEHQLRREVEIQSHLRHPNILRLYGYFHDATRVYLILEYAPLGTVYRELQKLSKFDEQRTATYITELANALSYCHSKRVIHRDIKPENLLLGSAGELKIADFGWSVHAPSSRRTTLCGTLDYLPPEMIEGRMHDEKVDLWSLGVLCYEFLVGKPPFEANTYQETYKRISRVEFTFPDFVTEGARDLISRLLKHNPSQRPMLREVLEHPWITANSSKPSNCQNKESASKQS

Structure (SMILES)	IC50 [nM]
Cc1cc(Nc2cc(N3CCN(C)CC3)nc(Nc3ccc(F)c(Cl)c3)n2)n[nH]1	7.1

test system: NB-4; test: Cell cycle arrest in human NB4 cells assessed as decrease in 2N DNA content at 0.1 to 1 uM after 24 hrs by propidium iodide staining based flow cytometry; assay type: functional; conditions: not given

Structure (SMILES)	Activity
Cc1cc(Nc2cc(N3CCN(C)CC3)nc(Nc3ccc(F)c(Cl)c3)n2)n[nH]1	Active

test system: U-937; test: Antitumor activity against human U937 cells xenografted in nude mouse assessed as tumor weight at 100 mg/kg, ip administered once daily for 9 days (reference value: 1.64 +/- 0.22 g); assay type: functional; conditions: not given

Structure (SMILES)	Activity [g]
Cc1cc(Nc2cc(N3CCN(C)CC3)nc(Nc3ccc(F)c(Cl)c3)n2)n[nH]1	0.54

test system: U-937; test: Induction of apoptosis in human U937 cells assessed as live cells at 0.6 uM after 48 hrs by Annexin-V/propidium iodide staining based flow cytometry (reference value: 94.6%); assay type: functional; conditions: not given

Structure (SMILES)	Activity [%]
Cc1cc(Nc2cc(N3CCN(C)CC3)nc(Nc3ccc(F)c(Cl)c3)n2)n[nH]1	67.8

test system: NB-4; test: Antiproliferative activity against human NB4 cells after 48 hrs by CCK8 assay; assay type: functional, cell-based; conditions: NB-4, 48 h

Structure (SMILES)	IC50 [nM]
Cc1cc(Nc2cc(N3CCN(C)CC3)nc(Nc3ccc(F)c(Cl)c3)n2)n[nH]1	500

test system: U-937; test: Induction of apoptosis in human U937 cells assessed as late apoptotic cells at 0.3 uM after 48 hrs by Annexin-V/propidium iodide staining based flow cytometry (reference value: 1.93%); assay type: functional; conditions: not given

Structure (SMILES)	Activity [%]
Cc1cc(Nc2cc(N3CCN(C)CC3)nc(Nc3ccc(F)c(Cl)c3)n2)n[nH]1	6.76

test system: K562; test: Cell cycle arrest in human K562 cells assessed as decrease in 2N DNA content at 0.1 to 1 uM after 24 hrs by propidium iodide staining based flow cytometry; assay type: functional; conditions: not given

Structure (SMILES)	Activity
Cc1cc(Nc2cc(N3CCN(C)CC3)nc(Nc3ccc(F)c(Cl)c3)n2)n[nH]1	Active

test system: U-937; test: Induction of apoptosis in human U937 cells assessed as necrotic cells at 0.3 uM after 48 hrs by Annexin-V/propidium iodide staining based flow cytometry (reference value: 1.13%); assay type: functional; conditions: not given

Structure (SMILES)	Activity [%]
Cc1cc(Nc2cc(N3CCN(C)CC3)nc(Nc3ccc(F)c(Cl)c3)n2)n[nH]1	3.01

test system: MDA-MB-231; test: Induction of aberrant spindle formation with tripolar and tetrapolar occurrence in human MDA-MB-231 cells at 1 uM after 48 hrs by DAPI staining based immunofluorescence assay; assay type: functional, cell-based; conditions: not given

Structure (SMILES)	Activity
Cc1cc(Nc2cc(N3CCN(C)CC3)nc(Nc3ccc(F)c(Cl)c3)n2)n[nH]1	Active

test system: MDA-MB-231; test: Antiproliferative activity against human MDA-MB-231 cells after 48 hrs by CCK8 assay; assay type: functional, cell-based; conditions: MDA-MB-231, 48 h

Structure (SMILES)	IC50 [nM]
Cc1cc(Nc2cc(N3CCN(C)CC3)nc(Nc3ccc(F)c(Cl)c3)n2)n[nH]1	95.5

test system: MCF7; test: Antiproliferative activity against human MCF7 cells after 48 hrs by CCK8 assay; assay type: functional, cell-based; conditions: MCF7, 48 h

Structure (SMILES)	IC50 [nM]
Cc1cc(Nc2cc(N3CCN(C)CC3)nc(Nc3ccc(F)c(Cl)c3)n2)n[nH]1	213

test system: U-937; test: Induction of apoptosis in human U937 cells assessed as early apoptotic cells at 1.2 uM after 48 hrs by Annexin-V/propidium iodide staining based flow cytometry (reference value: 2.38%); assay type: functional; conditions: not given

Structure (SMILES)	Activity [%]
Cc1cc(Nc2cc(N3CCN(C)CC3)nc(Nc3ccc(F)c(Cl)c3)n2)n[nH]1	2.22

test system: A-431; test: Antiproliferative activity against human A431 cells after 48 hrs by CCK8 assay; assay type: functional, cell-based; conditions: A-431, 48 h

Structure (SMILES)	IC50 [nM]
Cc1cc(Nc2cc(N3CCN(C)CC3)nc(Nc3ccc(F)c(Cl)c3)n2)n[nH]1	80.9
